Experiments:
Saos-2 cells = settings: in vitro; LTB4 at higher concentration (0.3-1 micromolar); cited from earlier work
[1] = system: critical-size (8 mm) femur segmental defect; assay: Critical-size femur segmental defect repaired with scaffold laden with ex vivo treated bone marrow; format: in vivo, Sprague-Dawley rats; settings: for mineralized tissue in the femur segmental defect on radiographs: 2 weeks after implantation, marrow treated ex vivo, versus vehicle-bone marrow scaffold control; for bone remodeling at the fracture site compared to control rats: FIG. 10, bone marrow aspirate treated ex vivo prior to administration
Procedure: Critical-size (8 mm) segmental defects were made in the right femur of 450-500 g male Sprague-Dawley rats. The defects were repaired as described by Rai et al. [Combination of platelet-rich plasma with polycaprolactone-tricalcium phosphate scaffolds for segmental defect repair. Journal of Biomedical Materials Research 81A:888-899 (2007)] except the polycaprolactone-tricalcium phosphate scaffolds were filled with autologous bone marrow that was treated ex vivo as described below rather than with platelet-rich plasma.
Following induction of anesthesia, bone marrow was harvested from the left femur of each rat. A medial peripatellar incision was made to the left femur and the patella was dislocated laterally to provide access to the femoral condyles. Using an 18 gauge needle, a hole was drilled into the femoral canal and the bone marrow collected into the bore of the 18 gauge needle. The marrow was forced from the syringe needle into a small test tube using 100 μl of saline containing 20 units of heparin. The harvested marrow was then treated with the dimethyl sulfoxide (DMSO) or AA-861 (1 μl of 100 mg/ml in DMSO) which is a 5-LO inhibitor. After 5 minutes, 20 μl of a thrombin and CaCl2 solution (1,000 units thrombin per ml in 10% CaCl2) was added to each marrow sample. Each marrow sample was gently mixed and applied to a polycaprolactone-tricalcium phosphate scaffold that was set upright in a 0.2 ml tube. Each marrow-laden scaffold was incubated at room temperature for 10 minutes to allow clotting to occur and was then inserted into the femoral defects.
Critical-size femoral defects were made in male Sprague-Dawley rats as described above in EXAMPLE 7. The defects were treated with bone marrow laden scaffolds as described above. […] Journal of Medicinal Chemistry 43:721-735 (2000)] (FIG. 10C), or with (c) LY-255283 (5 μl of a 1 mg/ml solution in DMSO) which is a leukotriene B4 receptor antagonist [Herron et al. Leukotriene B4 receptor antagonists: the LY255283 series of hydroxyacetophenones. Journal of Medicinal Chemistry 35:1818-1828 (1992)] (FIG. 10D).

[2] = system: 5-lipoxygenase or LTA4 hydrolase activity measured by the level of LTB4 in platelet-rich plasma; assay: Ex vivo treatment of platelet-rich plasma, leukotriene B4 levels by enzyme-linked immune-assay; format: cell-based, rat; settings: FIG. 9; 1 ug/ml; activated with thrombin and calcium chloride
From the text: Platelet-rich plasma is used clinically to augment fracture healing and other osteogenic processes [Wrotniak et al. Current opinion about using the platelet-rich gel in orthopaedics and trauma surgery. […] Platelet-rich plasma is enriched with platelets and white blood cells from whole blood by centrifugal separation. White blood cells, such as, macrophages, monocytes, and neutrophils, are a major source of 5-lipoxygenase activity [Woods et al. 5-lipoxygenase and 5-lipoxygenase-activating protein are localized in the nuclear envelope of activated human leukocytes.
Male Sprague-Dawley rats (450-500 g body weight) were used. Platelet-rich plasma was prepared as described previously using differential centrifugation [Gandhi et al. The effects of local platelet rich plasma delivery on diabetic fracture healing. […] Five minutes after drug treatment, the treated platelet-rich plasma was activated by addition of thrombin (100 units/ml) and calcium chloride (10 mg/ml) followed by incubation for 15 minutes at 37° C. The reaction was stopped and the platelet-rich plasma was separated by high-speed centrifugation (14,000 RPM). The supernatant was collected and assayed for leukotriene B4 levels using a commercial enzyme-linked immune-assay from Cayman Chemicals, Ann Arbor, Mich.

[3] = system: 8 mm diaphyseal segmental defect in the right femur; assay: Femur segmental defect repaired with scaffold impregnated with calcium sulfate containing a leukotriene pathway modifier; format: in vivo, Sprague-Dawley rats; settings: after 3 weeks of healing; local application in calcium sulfate, 1-5% w/w; FIG. 16
From the text: Male Sprague-Dawley rats underwent surgery during which an 8 mm diaphyseal, segmental defect in the right femur was made as described by Rai et al. [Combination of platelet-rich plasma with polycaprolactone-tricalcium phosphate scaffolds for segmental bone defect repair. Journal of Biomedical Materials Research […]:888-899 (2007)]. The defect was repaired with a polycaprolactone-tricalcium phosphate scaffold (8 mm long×3 mm diameter; Osteopore International, Singapore) or the scaffold impregnated with calcium sulfate containing a leukotriene pathway modifier. […] Journal of Medicinal Chemistry 43:721-735 (2000)]; and LY-255283 (1% w/w), a potent and specific leukotriene B4 receptor antagonist [Herron et al. Leukotriene B4 receptor antagonists: the LY255283 series of hydroxyacetophenones. Journal of Medicinal Chemistry 35:1818-1828 (1992)]. Healing of the segmental defects was assessed after 3 weeks of healing by radiographs (FIG. 16).

closed femur fracture = assay: Closed femur fracture healing in rats treated with 5-LO inhibitors (radiographs, torsional mechanical testing); format: in vivo, Sprague-Dawley rats; settings: for fracture bridging / healing on radiographs: Example 4, FIG. 8, NDGA 30 mg/kg or AA-861 5 mg/kg twice daily until day 21, 3 weeks of healing; for greater peak torque than vehicle treated rats: Example 4, FIG. 8D, torsional mechanical testing after 5 weeks of healing, NDGA 30 mg/kg, AA-861 5 mg/kg; for mode of femur failure in torsional mechanical testing: Example 4, after 5 weeks of healing
Procedure: Sprague-Dawley rats (3 months old) underwent a standard closed femur fracture procedure as described in the art [Simon et al., Cyclo-oxygenase 2 function is essential for bone fracture healing. Journal of Bone and Mineral Research, 17: 963-976 (2002); Bonnarens and Einhorn, Production of a standard closed fracture in laboratory animal bone. Journal of Orthopaedic Research, 2: 97-101 (1984)]. The impending fracture was stabilized with an intramedullary stainless steel pin. Beginning 4 hours after fracture the rats were treated with 30 mg/kg of NDGA (nordihydrogaiaretic acid) in 1% methylcellulose (5-lipoxygenase inhibitor treatment group) or with carrier only (1% methylcellulose). The day after surgery and continuing until day 14 post-fracture, experimental rats were treated with 2 doses of NDGA (30 mg/kg), the first dose between […] and then again with another NDGA dose 8-10 hours later. Control rats were treated similarly but with carrier only (1% methylcellulose). Three weeks after fracture, the rats were sacrificed, the fractured femurs were harvested, and high resolution radiographs were made of the fractured femurs using a Packard Faxitron and Kodak MinR2000 mammography film. Two representative radiographs are shown in FIG. 7 for each treatment group: control and 5-lipoxygenase (5-LO) inhibitor treated.
Sprague-Dawley rats (3 months old) underwent a standard closed femur fracture procedure as described in the art (Simon et al., Cyclo-oxygenase 2 function is essential for bone fracture healing. Journal of Bone and Mineral Research, 17: 963-976 (2002); Bonnarens and Einhorn, Production of a standard closed fracture in laboratory animal bone. Journal of Orthopaedic Research, 2: 97-101 (1984)]. The impending fracture was stabilized with an intramedullary stainless steel pin. Beginning 4 hours after fracture the rats were treated with vehicle (1% methylcellulose) or inhibitors of 5-LO suspended in 1% methylcellulose. Inhibitor A (NDGA) was administered at 30 mg/kg and Inhibitor B (AA-861) was administered at 5 mg/kg. The day after surgery and continuing until day 21 post-fracture, experimental rats were treated with 2 doses of inhibitor (either A or B), the first dose between 8-10 AM and then again with another dose 8-10 hours later. Control rats were treated similarly but with carrier only (1% methylcellulose). Three weeks after fracture the rats were anesthetized and high resolution radiographs were made of the fractured femurs using a Packard Faxitron and Kodak MinR2000 mammography film (FIGS. 8A, 8B, and 8C). Five weeks after fracture the rats were sacrificed, femurs resected, and assayed for structural mechanical properties by torsional mechanical testing (FIG. 8D).

[4] = system: fetal rat calvaria (osteoblast) cells; settings: in vitro; cited from earlier work
G292 cells = settings: in vitro; LTB4 at higher concentration (0.3-1 micromolar); cited from earlier work
[5] = system: primary rat calvaria (osteoblast) cultures; settings: in vitro; cited from earlier work
mouse calvaria = settings: in vitro organ culture; cited from earlier work

Row | Compound | Saos-2 cell proliferation (Saos-2 cells) | mineralized tissue in the femur segmental defect on radiographs [1] | bone remodeling at the fracture site compared to control rats [1] | activity of 5-lipoxygenase or LTA4 hydrolase, measured by the level of the LTB4 metabolite, in platelet-rich plasma [2] | bone formation in the segmental defect region on radiographs compared to scaffold-only group [3] | alkaline phosphatase activity [4] | bone nodule formation [4] | also measured
1 | CC1=C(C)C(=O)C(CCCCC#CCCCC#CCO)=C(C)C1=O [AA-861, 2-(12-hydroxydodeca-5,10-diynyl)-3,5,6-trimethyl-1,4-benzoquinone] | no effect | more extensive mineralized tissue | more extensive bone remodeling | significantly reduces | significantly more bone formation |  |  | fracture bridging / healing on radiographs (closed femur fracture): fractures healing faster; greater peak torque than vehicle treated rats (closed femur fracture): 53%; mode of femur failure in torsional mechanical testing (closed femur fracture): failed as boney unions
2 | CCCCC/C=C\C\C=C/C=C/C=C/[C@@H](SC[C@H](N)C(=O)NCC(=O)O)[C@@H](O)CCCC(=O)O [LTD4, leukotriene D4] |  |  |  |  |  | no effect | no effect | 
3 | CC(c1cc2ccccc2s1)N(O)C(N)=O (centres unmarked) [zileuton, N-(1-benzo[b]thien-2-ylethyl)-N-hydroxyurea] |  |  | more extensive bone remodeling | significantly reduces |  |  |  | 
4 | CC(Cc1ccc(O)c(O)c1)C(C)Cc1ccc(O)c(O)c1 (centres unmarked) [NDGA, nordihydroguaiaretic acid] |  |  |  |  |  |  |  | fracture bridging / healing on radiographs (closed femur fracture): fractures healing faster; greater peak torque than vehicle treated rats (closed femur fracture): 22%; mode of femur failure in torsional mechanical testing (closed femur fracture): failed as boney unions
5 | CCCCC/C=C\C\C=C/C=C/C=C/[C@@H](SC[C@H](NC(=O)CC[C@H](N)C(=O)O)C(=O)NCC(=O)O)[C@@H](O)CCCC(=O)O [LTC4, leukotriene C4] | no effect |  |  |  |  |  |  | G292 cell proliferation (G292 cells): promote proliferation; proliferation of primary rat calvaria (osteoblast) cultures [5]: no effect
6 | c1ccc(-c2ccc(OCCN3CCCC3)cc2)cc1 [SC-22716, 1-[2-(4-Phenylphenoxy)ethyl]pyrrolidine] |  | more extensive mineralized tissue | more extensive bone remodeling |  | significantly more bone formation |  |  | 
7 | CCCCC/C=C\C[C@@H](O)/C=C/C=C/C=C\[C@@H](O)CCCC(=O)O [LTB4, leukotriene B4] | promote proliferation |  |  |  |  | reduce | reduce | BMP2 induced increase in mouse calvaria thickness (mouse calvaria): prevented; G292 cell proliferation (G292 cells): promote proliferation; proliferation of primary rat calvaria (osteoblast) cultures [5]: reduces proliferation
8 | 5-hydroxyeicosatetraenoic acid [5-HETE] |  |  |  |  |  | reduce | reduce | BMP2 induced increase in mouse calvaria thickness (mouse calvaria): prevented
9 | CCc1cc(C(C)=O)c(O)cc1OCCCCCC(C)(C)c1nnn[nH]1 [LY-255283, 1-(5-ethyl-2-hydroxy-4-(6-methyl-6-(1H-tetrazol-5-yl)-heptyloxy)phenyl)ethanone] |  | some evident mineralized tissue | more extensive bone remodeling |  | significantly more bone formation |  |  | 
10 | CC(C)c1ccc2c(c1)c(SC(C)(C)C)c(CC(C)(C)C(=O)O)n2Cc1ccc(Cl)cc1 [MK-886, 3-[1-(4-chlorobenzyl)-3-t-butyl-thio-5-isopropylindol-2-yl]-2,2-dimethylpropanoic acid] |  |  |  | significantly reduces | significantly more bone formation |  |  | 
